Tests used:
[1] = target: T1, HBV core protein (UniProt P03146); assay: Biochemical capsid assembly assay (fluorescence quenching); set-up: species or system hepatitis B virus; settings: read-out: Assembly Activity (IC50); BODIPY-FL labelled core protein, 300 μM NaCl, read 6 min after start
T1 construct: fused on or other part: BODIPY-FL maleimide label on the C-terminal Cys150
Summary of the method: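 Assembly-induced fluorescence quenching (477/525 nm) was measured 6 min after NaCl addition ([…]), against 2.5 M and 0 M NaCl controls. The labelled C150 core dimer (truncated at 149) at 1.0-2.0 μM in HEPES pH 7.5 was tested with eight half-log compound dilutions, top 100, 31.6 or 10 μM. EC50 was obtained by non-linear fit from triplicates run three times.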

[2] = Cell viability assay (AlamarBlue) in HepAD38 cells; settings: human
[3] = system: HBV; assay: Determination of HBV DNA from the supernatants of HepAD38 cells (anti-HBV activity); type: cell-based, hepatitis B virus; settings: Hepatitis B virus, 144 h; HBV DNA in HepAD38 supernatant, day 6, qPCR; read-out: Cell Activity (EC50)
Summary of the method: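 Supernatant viral DNA was measured by LightCycler qPCR, calibrated with pCH-9/3091 plasmid, 6 days after tetracycline-free HepAD38 cultures received half-log serial compound dilutions; untreated and tetracycline-treated cells served as controls; EC50 was fitted by non-linear regression.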

T1 sequence (P03146 whole entry, looked up, the tested form may be a part): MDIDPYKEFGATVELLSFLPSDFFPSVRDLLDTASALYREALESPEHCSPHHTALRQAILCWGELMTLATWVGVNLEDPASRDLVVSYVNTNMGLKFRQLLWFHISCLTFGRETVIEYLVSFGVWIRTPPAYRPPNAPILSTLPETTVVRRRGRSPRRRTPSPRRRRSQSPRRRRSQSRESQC

Structure (SMILES): COCC1(N(C)C(=O)c2n[nH]c3c2CN(C(=O)c2cc4c(C(F)F)cccc4[nH]2)CC3)CC1 [Example 299, 5-[4-(difluoromethyl)-1H-indole-2-carbonyl]-N-[1-(methoxymethyl)cyclopropyl]-N-methyl-1H,4H,5H,6H,7H-pyrazolo[4,3-c]pyridine-3-carboxamide]
- IC50 [1]: < 5 µM
- CC50 at 6 days [2]: > 10 µM
- EC50 [3]: < 1 µM

Structure (SMILES): Cc1cc(F)cc2[nH]c(C(=O)N3CCc4n[nH]c(-c5cscn5)c4C3)cc12 [Example 26, 6-fluoro-4-methyl-2-[3-(1,3-thiazol-4-yl)-2H,4H,5H,6H,7H-pyrazolo[4,3-c]pyridine-5-carbonyl]-1H-indole]
- IC50 [1]: < 5 µM
- CC50 at 6 days [2]: > 10 µM
- EC50 [3]: < 1 µM

Structure (SMILES): CN(CCO)C(=O)c1n[nH]c2c1CN(C(=O)c1cc3c(C(C)(F)F)cccc3[nH]1)CC2 [Example 5, 5-[4-(1,1-difluoroethyl)-1H-indole-2-carbonyl]-N-(2-hydroxyethyl)-N-methyl-1H,4H,5H,6H,7H-pyrazolo[4,3-c]pyridine-3-carboxamide]
- IC50 [1]: < 5 µM
- CC50 at 6 days [2]: > 32 µM
- EC50 [3]: < 100 µM

Structure (SMILES): COCC1(N(CC(F)F)C(=O)c2n[nH]c3c2CN(C(=O)c2cc4ccccc4[nH]2)CC3)CC1 [Example 303, N-(2,2-difluoroethyl)-5-(1H-indole-2-carbonyl)-N-[1-(methoxymethyl)cyclopropyl]-1H,4H,5H,6H,7H-pyrazolo[4,3-c]pyridine-3-carboxamide]
- IC50 [1]: < 5 µM
- CC50 at 6 days [2]: > 10 µM
- EC50 [3]: < 1 µM

Structure (SMILES): CN(C(=O)c1n[nH]c2c1CN(C(=O)c1cc3ccccc3[nH]1)CC2)C1CCCOC1 (stereo not drawn) [Example 193, 5-(1H-indole-2-carbonyl)-N-methyl-N-(oxan-3-yl)-1H,4H,5H,6H,7H-pyrazolo[4,3-c]pyridine-3-carboxamide]
- IC50 [1]: < 100 µM
- CC50 at 6 days [2]: > 10 µM
- EC50 [3]: 1 to 25 µM

Structure (SMILES): O=C(NCC1CCOC1)c1n[nH]c2c1CN(C(=O)c1cc3ccccc3[nH]1)CC2 (stereo not drawn) [Example 96, 5-(1H-indole-2-carbonyl)-N-[(oxolan-3-yl)methyl]-1H,4H,5H,6H,7H-pyrazolo[4,3-c]pyridine-3-carboxamide]
- IC50 [1]: < 100 µM
- CC50 at 6 days [2]: > 100 µM
- EC50 [3]: 1 to 25 µM

Structure (SMILES): O=C(c1cc2ccccc2[nH]1)N1CCc2[nH]nc(C3CCC3)c2C1 [Example 167, 2-{3-cyclobutyl-1H,4H,5H,6H,7H-pyrazolo[4,3-c]pyridine-5-carbonyl}-1H-indole]
- IC50 [1]: < 5 µM
- CC50 at 6 days [2]: > 10 µM
- EC50 [3]: < 1 µM

Structure (SMILES): CN(C(=O)c1n[nH]c2c1CN(C(=O)c1cc3ccccc3[nH]1)CC2)C1(COC(F)F)CC1 [Example 318, N-{1-[(difluoromethoxy)methyl]cyclopropyl}-5-(1H-indole-2-carbonyl)-N-methyl-1H,4H,5H,6H,7H-pyrazolo[4,3-c]pyridine-3-carboxamide]
- IC50 [1]: < 5 µM
- CC50 at 6 days [2]: > 10 µM
- EC50 [3]: < 1 µM

Structure (SMILES): [2H]C([2H])([2H])OCC1(N(C)C(=O)c2n[nH]c3c2CN(C(=O)c2cc4ccccc4[nH]2)CC3)CC1 [Example 206, 5-(1H-indole-2-carbonyl)-N-{1-[(2H3)methoxymethyl]cyclopropyl}-N-methyl-1H,4H,5H,6H,7H-pyrazolo[4,3-c]pyridine-3-carboxamide]
- IC50 [1]: < 5 µM
- CC50 at 6 days [2]: > 10 µM
- EC50 [3]: < 1 µM

Structure (SMILES): O=C(c1cc2ccccc2[nH]1)N1CCc2[nH]nc(C(=O)N3CCCCC3)c2C1 [Example 112, 2-[3-(piperidine-1-carbonyl)-1H,4H,5H,6H,7H-pyrazolo[4,3-c]pyridine-5-carbonyl]-1H-indole]
- IC50 [1]: < 5 µM
- CC50 at 6 days [2]: > 32 µM
- EC50 [3]: < 1 µM

Structure (SMILES): COC1CCN(C(=O)c2n[nH]c3c2CN(C(=O)c2cc4ccccc4[nH]2)CC3)CC1 [Example 160, 2-[3-(4-methoxypiperidine-1-carbonyl)-1H,4H,5H,6H,7H-pyrazolo[4,3-c]pyridine-5-carbonyl]-1H-indole]
- IC50 [1]: < 100 µM
- CC50 at 6 days [2]: > 10 µM
- EC50 [3]: < 1 µM

Structure (SMILES): C[C@H]1CCCCN1C(=O)c1n[nH]c2c1CN(C(=O)c1cc3ccccc3[nH]1)CC2 [Example 147, 2-{3-[(2S)-2-methylpiperidine-1-carbonyl]-1H,4H,5H,6H,7H-pyrazolo[4,3-c]pyridine-5-carbonyl}-1H-indole]
- IC50 [1]: 5 to 10 µM
- CC50 at 6 days [2]: > 10 µM
- EC50 [3]: < 1 µM

Structure (SMILES): CN(CCC(=O)NS(=O)(=O)C1CC1)C(=O)c1[nH]nc2c1CN(C(=O)c1cc3ccccc3[nH]1)CC2 [Example 247, N-(cyclopropanesulfonyl)-3-{1-[5-(1H-indole-2-carbonyl)-2H,4H,5H,6H,7H-pyrazolo[4,3-c]pyridin-3-yl]-N-methylformamido}propanamide]
- IC50 [1]: < 100 µM
- CC50 at 6 days [2]: > 10 µM
- EC50 [3]: < 100 µM

Structure (SMILES): Cc1cccc2[nH]c(C(=O)N3CCc4[nH]nc(C(=O)N(C)CCO)c4C3)cc12 [Example 63, N-(2-hydroxyethyl)-N-methyl-5-(4-methyl-1H-indole-2-carbonyl)-1H,4H,5H,6H,7H-pyrazolo[4,3-c]pyridine-3-carboxamide]
- IC50 [1]: < 5 µM
- CC50 at 6 days [2]: > 100 µM
- EC50 [3]: < 1 µM

Structure (SMILES): CN(CCO)C(=O)c1n[nH]c2c1CN(C(=O)c1cc3ccccc3[nH]1)CC2 [Example 100, N-(2-hydroxyethyl)-5-(1H-indole-2-carbonyl)-N-methyl-1H,4H,5H,6H,7H-pyrazolo[4,3-c]pyridine-3-carboxamide]
- IC50 [1]: < 5 µM
- CC50 at 6 days [2]: > 100 µM
- EC50 [3]: < 1 µM

Structure (SMILES): Cc1cccc2[nH]c(C(=O)N3CCc4[nH]ncc4C3)cc12 [Example 136, 4-methyl-2-{1H,4H,5H,6H,7H-pyrazolo[4,3-c]pyridine-5-carbonyl}-1H-indole]
- IC50 [1]: < 5 µM
- CC50 at 6 days [2]: > 100 µM
- EC50 [3]: < 1 µM

Structure (SMILES): CON=C(C)c1n[nH]c2c1CN(C(=O)c1cc3ccccc3[nH]1)CC2 [Example 274, {1-[5-(1H-indole-2-carbonyl)-1H,4H,5H,6H,7H-pyrazolo[4,3-c]pyridin-3-yl]ethylidene}(methoxy)amine]
- IC50 [1]: < 100 µM
- CC50 at 6 days [2]: > 10 µM
- EC50 [3]: 1 to 25 µM

Structure (SMILES): CCc1cc(F)cc2[nH]c(C(=O)N3CCc4n[nH]c(-c5cscn5)c4C3)cc12 [Example 12, 4-ethyl-6-fluoro-2-[3-(1,3-thiazol-4-yl)-2H,4H,5H,6H,7H-pyrazolo[4,3-c]pyridine-5-carbonyl]-1H-indole]
- IC50 [1]: < 5 µM
- CC50 at 6 days [2]: > 10 µM
- EC50 [3]: < 1 µM

Structure (SMILES): Cc1cccc2[nH]c(C(=O)N3CCc4n[nH]c(-c5cscn5)c4C3)cc12 [Example 23, 4-methyl-2-[3-(1,3-thiazol-4-yl)-2H,4H,5H,6H,7H-pyrazolo[4,3-c]pyridine-5-carbonyl]-1H-indole]
- IC50 [1]: < 5 µM
- CC50 at 6 days [2]: > 10 µM
- EC50 [3]: < 1 µM

Structure (SMILES): O=C(c1cc2ccccc2[nH]1)N1CCc2[nH]nc(NCC3CC3)c2C1 [Example 79, N-(cyclopropylmethyl)-5-(1H-indole-2-carbonyl)-1H,4H,5H,6H,7H-pyrazolo[4,3-c]pyridin-3-amine]
- IC50 [1]: 5 to 10 µM
- CC50 at 6 days [2]: > 100 µM
- EC50 [3]: 1 to 25 µM

Structure (SMILES): CCOC(=O)CCC1(N(C)C(=O)c2n[nH]c3c2CN(C(=O)c2cc4ccccc4[nH]2)CC3)CC1 [Example 246, ethyl 3-{1-[N-methyl 5-(1H-indole-2-carbonyl)-1H,4H,5H,6H,7H-pyrazolo[4,3-c]pyridine-3-amido]cyclopropyl}propanoate]
- IC50 [1]: < 100 µM
- CC50 at 6 days [2]: > 10 µM
- EC50 [3]: < 100 µM

Structure (SMILES): COCC1(N(C)C(=O)c2n[nH]c3c2CN(C(=O)c2cc4c(F)cc(F)cc4[nH]2)CC3)CC1 [Example 266, 5-(4,6-difluoro-1H-indole-2-carbonyl)-N-[1-(methoxymethyl)cyclopropyl]-N-methyl-1H,4H,5H,6H,7H-pyrazolo[4,3-c]pyridine-3-carboxamide]
- IC50 [1]: < 5 µM
- CC50 at 6 days [2]: > 10 µM
- EC50 [3]: < 1 µM

Structure (SMILES): CON(C)C(=O)c1n[nH]c2c1CN(C(=O)c1cc3c(F)cc(F)cc3[nH]1)CC2 [Example 127, 5-(4,6-difluoro-1H-indole-2-carbonyl)-N-methoxy-N-methyl-1H4H,5H,6H,7H-pyrazolo[4,3-c]pyridine-3-carboxamide]
- IC50 [1]: < 5 µM
- CC50 at 6 days [2]: > 100 µM
- EC50 [3]: < 1 µM

Structure (SMILES): COCC1(N(C)C(=O)c2n[nH]c3c2CN(C(=O)c2cc4c(C(F)F)cc(F)cc4[nH]2)CC3)CC1 [Example 298, 5-[4-(difluoromethyl)-6-fluoro-1H-indole-2-carbonyl]-N-[1-(methoxymethyl)cyclopropyl]-N-methyl-1H,4H,5H,6H,7H-pyrazolo[4,3-c]pyridine-3-carboxamide]
- IC50 [1]: < 5 µM
- CC50 at 6 days [2]: > 10 µM
- EC50 [3]: < 1 µM

Structure (SMILES): O=C(c1cc2c(F)ccc(F)c2[nH]1)N1CCc2n[nH]c(-c3cscn3)c2C1 [Example 17, 4,7-difluoro-2-[3-(1,3-thiazol-4-yl)-2H,4H,5H,6H,7H-pyrazolo[4,3-c]pyridine-5-carbonyl]-1H-indole]
- IC50 [1]: < 5 µM
- CC50 at 6 days [2]: > 10 µM
- EC50 [3]: < 1 µM

Structure (SMILES): CCOCC1(N(C)C(=O)c2[nH]nc3c2CN(C(=O)c2cc4c(C)cc(F)cc4[nH]2)CC3)CC1 [Example 366, N-[1-(ethoxymethyl)cyclopropyl]-5-(6-fluoro-4-methyl-1H-indole-2-carbonyl)-N-methyl-2H,4H,5H,6H,7H-pyrazolo[4,3-c]pyridine-3-carboxamide]
- IC50 [1]: < 5 µM
- CC50 at 6 days [2]: > 10 µM
- EC50 [3]: < 1 µM

Reference: patent publication US11236087B2, “Highly active pyrazolo-piperidine substituted indole-2-carboxamides active against the hepatitis B virus (HBV)” (AiCuris GmbH & Co. KG, priority 2017, dated 2022)
